These results are taken from patent US20260232682A1, “GSPT1 DEGRADER COMPOUNDS” (Captor Therapeutics S.A., priority 2023, published 2026).

For experiment [1], the target named is T1, [SALL4 ZF2]-[compound]-[CRBN/DDB1] ternary complex (Homo sapiens, UniProt Q96SW2+Q9UJQ4).
T1 construct: SALL4 ZF2
The experiment is described as follows: AlphaLISA assay for off-target recruitment detection, SALL4 ZF2. The conditions noted are these: 1 μM compound; normalized to Lenalidomide; read-out: Normalized ternary complex response, SALL4 ZF2. Type of experiment: binding. The procedure, abridged:
(§1)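 Neo-substrate with 40 μg/ml donor beads and 200 nM 6×His-CRBN/DDB1 with 40 μg/ml anti-His acceptor beads were each prepared in PBS pH 7.4 with Tween-20 and 1 mM DTT, preincubated 30 min at RT, then mixed. Compounds at 2% DMSO were incubated 30 min at 25 °C, read at 680/615 nm, and normalised between DMSO background and reference glue maximum.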

Experiment [2] addresses T2, [IKZF2 ZF2]-[compound]-[CRBN/DDB1] ternary complex (Homo sapiens, UniProt Q96SW2+Q9UKS7).
T2 construct: IKZF2 ZF2
Put plainly: AlphaLISA assay for off-target recruitment detection, IKZF2 ZF2. Type of experiment: binding. The conditions noted are these: 1 μM compound; normalized to Helios modulator; read-out: Normalized ternary complex response, IKZF2 ZF2. The procedure, abridged: as §1
(Bead proximity is the source of the signal in Alpha formats.)

The target in experiment [3] is CRBN/DDB1 protein complex (Homo sapiens, UniProt Q96SW2). The experiment is described as follows: CRBN displacement TR-FRET assay. The conditions noted are these: Thalidomide-Red tracer, 6×His-CRBN/DDB1; read-out: CRBN binding Ki. Summed up:
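Test compound at various concentrations competed with 6.8 nM Thalidomide-Red tracer for 5 nM 6×His-CRBN/DDB1, detected with 0.5 nM anti-His-Eu cryptate in buffer with 1 mM DTT and 1% DMSO. Incubation ran 180 min at room temperature with a time-resolved fluorescence read-out. IC50 values were converted to Ki by Cheng–Prusoff using tracer Kd and protein and tracer concentrations.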
In general terms: TR-FRET usually uses a lanthanide donor and a delayed reading to cut background.

The target of experiment [4] is [CK1α]-[compound]-[CRBN/DDB1] ternary complex (Homo sapiens, UniProt P48729+Q96SW2). The experiment is described as follows: AlphaLISA assay for off-target recruitment detection, CK1α. It is filed as binding. The conditions noted are these: 1 μM compound; normalized to FPFT-2216; read-out: Normalized ternary complex response, CK1α. The procedure, abridged:
as §1

Experiment [5] deals with [GSPT1]-[compound of formula (I)]-[CRBN/DDB1] complex (Homo sapiens, UniProt P15170+Q96SW2). Put plainly: AlphaLISA ternary complex formation assay (GSPT1). As to conditions: 0.5 h; 1 μM compound; normalized to reference compound CC-885; read-out: Normalized AlphaLISA ternary complex average signal at 1 μM molecule. Type of experiment: binding. Summed up:
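Biotinylated GSPT1 on streptavidin donor beads and 6×His-CRBN/DDB1 on anti-His acceptor beads (each 200 nM before mixing) in HBS pH 7.4 with 0.1% Tween-20 and 1 mM DTT, 2% DMSO final, 30 min at 25 °C. AlphaLISA luminescence is normalized between DMSO background and the reference compound's maximum.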

The target of experiment [6] is T3, [IKZF1 ZF2]-[compound]-[CRBN/DDB1] ternary complex (Homo sapiens, UniProt Q13422+Q96SW2).
T3 construct: IKZF1 ZF2
The experiment is described as follows: AlphaLISA assay for off-target recruitment detection, IKZF1 ZF2. As to conditions: 1 μM compound; normalized to Lenalidomide; read-out: Normalized ternary complex response, IKZF1 ZF2. Type of experiment: binding. Summed up:
as §1

T1 sequence (Q9UJQ4 410-432 limits assumed): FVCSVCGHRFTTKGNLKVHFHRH
T1 sequence (Q96SW2 whole entry): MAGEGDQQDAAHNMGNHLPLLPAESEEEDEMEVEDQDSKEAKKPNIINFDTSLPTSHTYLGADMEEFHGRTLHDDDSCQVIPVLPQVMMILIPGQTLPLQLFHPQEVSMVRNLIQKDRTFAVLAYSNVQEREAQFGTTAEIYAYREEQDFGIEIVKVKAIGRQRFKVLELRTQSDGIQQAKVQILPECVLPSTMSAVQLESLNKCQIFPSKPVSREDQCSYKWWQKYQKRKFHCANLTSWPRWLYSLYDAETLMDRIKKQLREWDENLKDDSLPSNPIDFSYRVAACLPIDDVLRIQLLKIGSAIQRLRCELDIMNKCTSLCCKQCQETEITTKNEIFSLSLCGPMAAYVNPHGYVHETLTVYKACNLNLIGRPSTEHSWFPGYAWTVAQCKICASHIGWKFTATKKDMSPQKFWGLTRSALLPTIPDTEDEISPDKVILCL
T1 sequence (Q16531 whole entry partner): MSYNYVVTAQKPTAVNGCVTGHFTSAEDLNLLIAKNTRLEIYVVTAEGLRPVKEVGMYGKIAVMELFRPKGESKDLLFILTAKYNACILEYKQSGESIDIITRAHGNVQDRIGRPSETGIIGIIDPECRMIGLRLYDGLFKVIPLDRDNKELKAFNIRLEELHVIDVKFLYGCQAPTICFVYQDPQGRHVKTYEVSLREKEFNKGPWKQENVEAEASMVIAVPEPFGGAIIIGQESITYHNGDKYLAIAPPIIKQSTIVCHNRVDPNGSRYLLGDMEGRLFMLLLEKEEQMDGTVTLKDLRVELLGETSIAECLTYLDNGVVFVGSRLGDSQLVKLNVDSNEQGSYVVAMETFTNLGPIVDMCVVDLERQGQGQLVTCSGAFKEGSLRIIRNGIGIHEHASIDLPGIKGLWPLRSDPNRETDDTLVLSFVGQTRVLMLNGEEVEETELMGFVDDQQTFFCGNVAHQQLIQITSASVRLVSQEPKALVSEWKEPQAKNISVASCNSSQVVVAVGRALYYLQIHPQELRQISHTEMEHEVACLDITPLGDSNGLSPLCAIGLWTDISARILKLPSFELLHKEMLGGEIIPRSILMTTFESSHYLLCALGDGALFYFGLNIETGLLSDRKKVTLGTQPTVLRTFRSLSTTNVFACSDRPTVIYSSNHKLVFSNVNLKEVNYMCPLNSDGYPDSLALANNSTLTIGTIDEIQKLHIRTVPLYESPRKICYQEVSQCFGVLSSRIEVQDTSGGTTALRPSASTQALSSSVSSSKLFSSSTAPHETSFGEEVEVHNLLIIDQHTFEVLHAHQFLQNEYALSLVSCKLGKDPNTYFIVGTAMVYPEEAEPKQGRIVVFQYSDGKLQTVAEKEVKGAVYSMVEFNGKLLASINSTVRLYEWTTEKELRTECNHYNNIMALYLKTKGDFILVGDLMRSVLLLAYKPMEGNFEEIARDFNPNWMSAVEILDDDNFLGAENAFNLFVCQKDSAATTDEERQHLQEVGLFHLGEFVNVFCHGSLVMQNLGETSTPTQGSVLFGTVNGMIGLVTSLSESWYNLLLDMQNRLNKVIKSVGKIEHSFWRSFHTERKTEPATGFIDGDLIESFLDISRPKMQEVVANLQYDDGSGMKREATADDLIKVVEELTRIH
Sequence of CRBN/DDB1 protein complex (Q96SW2 whole entry, species assumed): as the sequence (Q96SW2 whole entry) above
Sequence of CRBN/DDB1 protein complex (Q16531 whole entry partner, species assumed): as the sequence (Q16531 whole entry partner) above
T2 sequence (Q9UKS7 140-162 limits assumed): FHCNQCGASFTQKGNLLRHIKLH
T2 sequence (Q96SW2 whole entry): as the sequence (Q96SW2 whole entry) above
T2 sequence (Q16531 whole entry partner): as the sequence (Q16531 whole entry partner) above
Sequence of [CK1α]-[compound]-[CRBN/DDB1] ternary complex (P48729 whole entry): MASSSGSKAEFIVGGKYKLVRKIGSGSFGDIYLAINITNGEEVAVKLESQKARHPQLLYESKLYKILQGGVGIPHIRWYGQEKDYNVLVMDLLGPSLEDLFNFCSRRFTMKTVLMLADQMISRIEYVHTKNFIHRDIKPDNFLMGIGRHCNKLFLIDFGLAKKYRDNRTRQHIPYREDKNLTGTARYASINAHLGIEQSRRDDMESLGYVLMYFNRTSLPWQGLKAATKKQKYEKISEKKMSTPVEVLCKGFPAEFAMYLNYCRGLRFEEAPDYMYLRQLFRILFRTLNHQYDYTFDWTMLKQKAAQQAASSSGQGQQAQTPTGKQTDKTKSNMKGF
Sequence of [CK1α]-[compound]-[CRBN/DDB1] ternary complex (Q96SW2 whole entry): as the sequence (Q96SW2 whole entry) above
Sequence of [CK1α]-[compound]-[CRBN/DDB1] ternary complex (Q16531 whole entry partner): as the sequence (Q16531 whole entry partner) above
T3 sequence (Q13422 145-167 limits assumed): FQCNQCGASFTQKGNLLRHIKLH
T3 sequence (Q96SW2 whole entry): as the sequence (Q96SW2 whole entry) above
T3 sequence (Q16531 whole entry partner): as the sequence (Q16531 whole entry partner) above
Sequence of [GSPT1]-[compound of formula (I)]-[CRBN/DDB1] complex (P15170 whole entry): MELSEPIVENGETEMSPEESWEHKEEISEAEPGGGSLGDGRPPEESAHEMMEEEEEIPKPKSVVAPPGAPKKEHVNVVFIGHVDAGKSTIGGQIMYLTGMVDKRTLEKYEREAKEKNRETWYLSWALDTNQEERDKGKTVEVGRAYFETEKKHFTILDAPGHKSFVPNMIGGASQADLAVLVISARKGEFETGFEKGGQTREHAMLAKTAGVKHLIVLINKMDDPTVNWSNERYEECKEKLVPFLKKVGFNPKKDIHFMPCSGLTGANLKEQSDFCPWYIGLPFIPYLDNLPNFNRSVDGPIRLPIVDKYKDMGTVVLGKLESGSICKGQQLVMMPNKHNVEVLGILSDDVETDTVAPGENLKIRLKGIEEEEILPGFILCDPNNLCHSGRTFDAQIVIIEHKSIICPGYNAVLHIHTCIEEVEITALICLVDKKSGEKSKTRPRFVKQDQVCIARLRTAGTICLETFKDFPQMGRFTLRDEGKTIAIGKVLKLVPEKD
Sequence of [GSPT1]-[compound of formula (I)]-[CRBN/DDB1] complex (Q96SW2 whole entry): as the sequence (Q96SW2 whole entry) above
Sequence of [GSPT1]-[compound of formula (I)]-[CRBN/DDB1] complex (Q16531 whole entry partner): as the sequence (Q16531 whole entry partner) above

Usually Ki stands for the dissociation constant of the complex between target and ligand, obtained from inhibition or displacement. Take `Cc1nc2cc(COC(=O)Nc3ccc(C(F)(F)F)c(Cl)c3)ccc2cc1C1CCC(=O)NC1=O` (stereo not drawn) [Compound 18, (3-(2,6-dioxopiperidin-3-yl)-2-methylquinolin-7-yl)methyl (3-chloro-4-(trifluoromethyl)phenyl)carbamate]: the activation at 1 µM is less than 10% in experiment [1]; less than 10% in experiment [2]; less than 10% in experiment [4]; 10 to 50% in experiment [5]; less than 10% in experiment [6]. In addition, the inhibitory constant (Ki) in experiment [3] was 500 to 1000 nM.

For the compound `Cc1nc2cc(COC(=O)Nc3cccc(OC(F)(F)F)c3)ccc2cc1C1CCC(=O)NC1=O` (stereo not drawn) [Compound 19, (3-(2,6-dioxopiperidin-3-yl)-2-methylquinolin-7-yl)methyl (3-(trifluoromethoxy)phenyl)carbamate], the activation at 1 µM in experiment [1] is less than 10%; in experiment [2] it was less than 10%; in experiment [4] it was less than 10%; in experiment [5] it was 10 to 50%; in experiment [6], less than 10%. The Ki in experiment [3] is more than 1000 nM.

Turning to `Cc1nc2cc(COC(=O)Nc3ccc(-c4ccccc4)nc3)ccc2cc1C1CCC(=O)NC1=O` (stereo not drawn) [Compound 20, (3-(2,6-dioxopiperidin-3-yl)-2-methylquinolin-7-yl)methyl (6-phenylpyridin-3-yl)carbamate], the activation at 1 µM is less than 10% in experiment [1]; less than 10% in experiment [2]; less than 10% in experiment [4]; 10 to 50% in experiment [5]; less than 10% in experiment [6]. Further, the Ki in experiment [3] was less than 500 nM.

As for `COc1cc(C)c(Cl)cc1NC(=O)OCc1ccc2cc(C3CCC(=O)NC3=O)c(C)nc2c1` (stereo not drawn) [Compound 21, (3-(2,6-dioxopiperidin-3-yl)-2-methylquinolin-7-yl)methyl (5-chloro-2-methoxy-4-methylphenyl)carbamate], the activation at 1 µM was less than 10% in experiment [1]; less than 10% in experiment [2]; less than 10% in experiment [4]; more than 50% in experiment [5]; less than 10% in experiment [6]. Moreover, the Ki in experiment [3] was in the range of 500 to 1000 nM.

Turning to `Cc1ccc(NC(=O)OCc2cc(F)c3cc(C4CCC(=O)NC4=O)c(C)nc3c2)cc1Cl` (stereo not drawn) [Compound 22, (3-(2,6-dioxopiperidin-3-yl)-5-fluoro-2-methylquinolin-7-yl)methyl (3-chloro-4-methylphenyl)carbamate], the activation at 1 µM in experiment [1] was less than 10%; in experiment [2], less than 10%; in experiment [4], less than 10%; in experiment [5], more than 50%; in experiment [6], less than 10%. The inhibition constant (Ki) in experiment [3] was more than 1000 nM.

In the case of `Cc1ccc(NC(=O)NCc2ccc3cc(N4CCC(=O)NC4=O)c(C)nc3c2)cc1Cl` [Compound 27, 1-(3-chloro-4-methylphenyl)-3-((3-(2,4-dioxotetrahydropyrimidin-1(2H)-yl)-2-methylquinolin-7-yl)methyl)urea], the activation at 1 µM in experiment [1] is less than 10%; in experiment [2], less than 10%; in experiment [4] it was less than 10%; in experiment [5], 10 to 50%; in experiment [6] it was less than 10%. Besides, in experiment [3], the inhibition constant Ki is less than 500 nM.

Regarding `Cc1ccc(NC(=O)OCc2ccc3cc(N4CCC(=O)NC4=O)c(C)nc3c2)cc1Cl` [Compound 28, (3-(2,4-dioxotetrahydropyrimidin-1(2H)-yl)-2-methylquinolin-7-yl)methyl (3-chloro-4-methylphenyl)carbamate], the activation at 1 µM in experiment [1] was less than 10%; in experiment [2] it was less than 10%; in experiment [4], less than 10%; in experiment [5] it was 10 to 50%; in experiment [6], less than 10%. Further, the inhibition constant Ki in experiment [3] fell in the range of 500 to 1000 nM.

For the compound `Cc1ccc(NC(=O)OCc2ccc3nc(C)c(N4CCC(=O)NC4=O)cc3c2)cc1Cl` [Compound 29, (3-(2,4-dioxotetrahydropyrimidin-1(2H)-yl)-2-methylquinolin-6-yl)methyl (3-chloro-4-methylphenyl)carbamate], the activation at 1 µM was 25 to 50% in experiment [1]; less than 10% in experiment [2]; less than 10% in experiment [4]; 10 to 50% in experiment [5]; 10 to 25% in experiment [6]. The inhibition constant (Ki) in experiment [3] was less than 500 nM.

As to `Cc1nc2cc(COC(=O)Nc3cc(C(C)(C)C)no3)ccc2cc1C1CCC(=O)NC1=O` (stereo not drawn) [Compound 30, (3-(2,6-dioxopiperidin-3-yl)-2-methylquinolin-7-yl)methyl (3-(tert-butyl)isoxazol-5-yl)carbamate], the activation at 1 µM in experiment [1] is less than 10%; in experiment [2], less than 10%; in experiment [4], less than 10%; in experiment [5], more than 50%; in experiment [6] it was less than 10%. Besides, in experiment [3], the Ki lay in the range of 500 to 1000 nM.

Take `Cc1ccc(NC(=O)CCc2ccc3cc(C4CCC(=O)NC4=O)c(C)nc3c2)cc1Cl` (stereo not drawn) [Compound 32, N-(3-chloro-4-methylphenyl)-3-(3-(2,6-dioxopiperidin-3-yl)-2-methylquinolin-7-yl)propanamide]: the activation at 1 µM in experiment [1] was less than 10%; in experiment [2] it was less than 10%; in experiment [4], less than 10%; in experiment [5], more than 50%; in experiment [6], less than 10%. Also, in experiment [3], the Ki lay within 500 to 1000 nM.

For `Cc1nc2cc(COC(=O)Nc3csc(-c4ccccc4)c3)ccc2cc1C1CCC(=O)NC1=O` (stereo not drawn) [Compound 37, (3-(2,6-dioxopiperidin-3-yl)-2-methylquinolin-7-yl)methyl (5-phenylthiophen-3-yl)carbamate], the activation at 1 µM is less than 10% in experiment [1]; less than 10% in experiment [2]; less than 10% in experiment [4]; 10 to 50% in experiment [5]; less than 10% in experiment [6]. The Ki in experiment [3] lay in the range of 500 to 1000 nM.

Regarding `Cc1ccc(NC(=O)OCc2ccc3cc([C@@H]4CCC(=O)NC4=O)c(C)nc3c2)cc1Cl` [Compound 38, (3-(2,6-dioxopiperidin-3-yl)-2-methylquinolin-7-yl)methyl (3-chloro-4-methylphenyl)carbamate], the activation at 1 µM in experiment [1], in experiment [2], in experiment [4], in experiment [5] and in experiment [6] was less than 10% each time. Further, the Ki in experiment [3] is more than 1000 nM.

As for `Cc1ccc(NC(=O)OCc2ccc3cc([C@H]4CCC(=O)NC4=O)c(C)nc3c2)cc1Cl` [Compound 39, (3-(2,6-dioxopiperidin-3-yl)-2-methylquinolin-7-yl)methyl (3-chloro-4-methylphenyl)carbamate], the activation at 1 µM in experiment [1] is less than 10%; in experiment [2] it was less than 10%; in experiment [4], less than 10%; in experiment [5] it was more than 50%; in experiment [6] it was less than 10%. Further, the Ki in experiment [3] fell in the range of 500 to 1000 nM.

For `Cc1nc2cc(COC(=O)Nc3ccc(N4CCOCC4)nc3)ccc2cc1C1CCC(=O)NC1=O` (stereo not drawn) [Compound 42, (3-(2,6-dioxopiperidin-3-yl)-2-methylquinolin-7-yl)methyl (6-morpholinopyridin-3-yl)carbamate], the activation at 1 µM in experiment [1] is less than 10%; in experiment [2], less than 10%; in experiment [4] it was less than 10%; in experiment [5], more than 50%; in experiment [6] it was less than 10%. Further, in experiment [3], the Ki is less than 500 nM.

Take `Cc1ccc(NC(=O)OCc2ccc3c(C)c(C4CCC(=O)NC4=O)c(C)nc3c2)cc1Cl` (stereo not drawn) [Compound 44, (3-(2,6-dioxopiperidin-3-yl)-2,4-dimethylquinolin-7-yl)methyl (3-chloro-4-methylphenyl)carbamate]: the activation at 1 µM in experiment [1] is less than 10%; in experiment [2], less than 10%; in experiment [4], less than 10%; in experiment [5], 10 to 50%; in experiment [6], less than 10%. The Ki in experiment [3] is less than 500 nM.

For `COc1ccc(NC(=O)OCc2ccc3cc(C4CCC(=O)NC4=O)c(C)nc3c2)nn1` (stereo not drawn) [Compound 45, (3-(2,6-dioxopiperidin-3-yl)-2-methylquinolin-7-yl)methyl (6-methoxypyridazin-3-yl)carbamate], the activation at 1 µM is less than 10% in experiment [1]; less than 10% in experiment [2]; less than 10% in experiment [4]; 10 to 50% in experiment [5]; less than 10% in experiment [6]. Moreover, the inhibition constant Ki in experiment [3] is more than 1000 nM.
